As usually defined, the IC50 is the concentration needed to halve the response being measured.

The values below come from patent US10660877B2 (BRISTOL-MYERS SQUIBB COMPANY, priority 2016, dated 2020).

Like-named read-outs stand apart in the source and are kept apart here.

The target of test [1] is human TLR8 (Homo sapiens (Human), UniProt Q9NR97). The test is described as follows: TLR8 inhibition reporter assay (HEK-Blue cells, SEAP reporter, R848 stimulation).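 Further: compounds tested from 0.05 nM to 50 µM, 22 h at 37 °C, SEAP measured with HEK-Blue Detection, inhibition relative to agonist plus DMSO versus a known inhibitor.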 Background: A reporter such as luciferase makes a cellular process visible.
human TLR8, sequence (Q9NR97 27-1041): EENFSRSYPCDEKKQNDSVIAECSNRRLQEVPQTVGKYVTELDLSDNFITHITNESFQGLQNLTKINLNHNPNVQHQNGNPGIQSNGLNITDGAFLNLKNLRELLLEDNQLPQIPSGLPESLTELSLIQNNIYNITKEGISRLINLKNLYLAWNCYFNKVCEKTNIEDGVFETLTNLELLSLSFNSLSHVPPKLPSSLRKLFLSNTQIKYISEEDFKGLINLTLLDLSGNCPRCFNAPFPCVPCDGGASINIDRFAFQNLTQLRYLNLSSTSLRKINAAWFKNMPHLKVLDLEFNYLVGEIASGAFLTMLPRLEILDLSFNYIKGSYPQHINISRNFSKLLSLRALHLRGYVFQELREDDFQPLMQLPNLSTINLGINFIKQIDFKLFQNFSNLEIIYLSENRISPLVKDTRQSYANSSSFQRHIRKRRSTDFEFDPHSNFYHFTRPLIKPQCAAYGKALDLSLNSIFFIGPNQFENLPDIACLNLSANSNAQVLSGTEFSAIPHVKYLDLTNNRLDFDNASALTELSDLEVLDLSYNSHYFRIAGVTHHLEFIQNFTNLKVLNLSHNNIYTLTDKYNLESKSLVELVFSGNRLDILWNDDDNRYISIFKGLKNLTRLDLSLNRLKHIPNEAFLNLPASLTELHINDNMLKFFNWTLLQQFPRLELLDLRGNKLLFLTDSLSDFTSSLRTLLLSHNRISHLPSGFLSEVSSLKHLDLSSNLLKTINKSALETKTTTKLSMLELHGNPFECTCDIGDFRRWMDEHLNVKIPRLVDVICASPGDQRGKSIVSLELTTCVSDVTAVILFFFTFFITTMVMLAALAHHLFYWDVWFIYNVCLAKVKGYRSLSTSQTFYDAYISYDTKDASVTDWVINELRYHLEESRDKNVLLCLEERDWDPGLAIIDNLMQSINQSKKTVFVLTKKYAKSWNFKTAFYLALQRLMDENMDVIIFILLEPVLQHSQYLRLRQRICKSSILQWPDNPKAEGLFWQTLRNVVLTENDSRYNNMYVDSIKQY
Test [2] deals with human TLR7 (Homo sapiens (Human), UniProt Q9NYK1). The test is described as follows: TLR7 inhibition reporter assay (HEK-Blue cells, SEAP reporter, gardiquimod stimulation). The settings on record: HEK-Blue cells overexpressing human TLR7, gardiquimod 7.5 μM. The test is classed as cell-based.
human TLR7, sequence (Q9NYK1 27-1049): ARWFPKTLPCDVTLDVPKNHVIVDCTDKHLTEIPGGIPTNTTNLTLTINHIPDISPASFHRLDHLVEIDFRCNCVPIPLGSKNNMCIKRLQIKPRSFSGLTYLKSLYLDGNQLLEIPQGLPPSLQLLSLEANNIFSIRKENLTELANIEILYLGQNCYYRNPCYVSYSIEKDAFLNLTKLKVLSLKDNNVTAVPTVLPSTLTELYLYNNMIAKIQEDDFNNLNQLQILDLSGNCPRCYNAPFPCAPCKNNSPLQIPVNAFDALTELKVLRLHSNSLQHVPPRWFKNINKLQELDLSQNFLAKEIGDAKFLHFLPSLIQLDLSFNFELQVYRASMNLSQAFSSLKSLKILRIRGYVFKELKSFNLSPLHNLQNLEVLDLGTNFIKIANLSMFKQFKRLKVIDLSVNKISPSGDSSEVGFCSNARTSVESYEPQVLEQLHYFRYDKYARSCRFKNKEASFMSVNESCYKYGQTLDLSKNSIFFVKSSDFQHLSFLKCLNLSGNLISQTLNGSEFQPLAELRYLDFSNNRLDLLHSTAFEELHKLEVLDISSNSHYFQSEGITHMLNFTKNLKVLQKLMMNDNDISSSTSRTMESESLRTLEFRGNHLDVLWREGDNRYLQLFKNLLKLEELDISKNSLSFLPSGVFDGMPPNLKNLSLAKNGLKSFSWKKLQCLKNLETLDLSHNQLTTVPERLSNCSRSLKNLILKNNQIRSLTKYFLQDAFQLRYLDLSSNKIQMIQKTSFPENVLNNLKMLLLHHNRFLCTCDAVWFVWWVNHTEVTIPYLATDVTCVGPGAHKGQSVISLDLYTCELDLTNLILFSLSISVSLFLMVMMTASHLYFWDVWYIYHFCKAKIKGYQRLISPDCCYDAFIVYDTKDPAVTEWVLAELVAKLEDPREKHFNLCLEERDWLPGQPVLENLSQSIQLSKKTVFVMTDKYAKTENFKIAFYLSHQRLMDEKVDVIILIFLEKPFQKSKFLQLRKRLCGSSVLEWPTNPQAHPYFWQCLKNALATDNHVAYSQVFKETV
In test [3] the target is human TLR9 (Homo sapiens (Human), UniProt Q9NR96). The test is described as follows: TLR9 inhibition reporter assay (HEK-Blue cells, SEAP reporter, ODN2006 stimulation).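 Further: compounds tested over 0.05 nM to 50 µM, 22 h incubation, inhibition taken as SEAP signal drop from agonist plus DMSO wells toward a known inhibitor control.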
human TLR9, sequence (Q9NR96 26-1032): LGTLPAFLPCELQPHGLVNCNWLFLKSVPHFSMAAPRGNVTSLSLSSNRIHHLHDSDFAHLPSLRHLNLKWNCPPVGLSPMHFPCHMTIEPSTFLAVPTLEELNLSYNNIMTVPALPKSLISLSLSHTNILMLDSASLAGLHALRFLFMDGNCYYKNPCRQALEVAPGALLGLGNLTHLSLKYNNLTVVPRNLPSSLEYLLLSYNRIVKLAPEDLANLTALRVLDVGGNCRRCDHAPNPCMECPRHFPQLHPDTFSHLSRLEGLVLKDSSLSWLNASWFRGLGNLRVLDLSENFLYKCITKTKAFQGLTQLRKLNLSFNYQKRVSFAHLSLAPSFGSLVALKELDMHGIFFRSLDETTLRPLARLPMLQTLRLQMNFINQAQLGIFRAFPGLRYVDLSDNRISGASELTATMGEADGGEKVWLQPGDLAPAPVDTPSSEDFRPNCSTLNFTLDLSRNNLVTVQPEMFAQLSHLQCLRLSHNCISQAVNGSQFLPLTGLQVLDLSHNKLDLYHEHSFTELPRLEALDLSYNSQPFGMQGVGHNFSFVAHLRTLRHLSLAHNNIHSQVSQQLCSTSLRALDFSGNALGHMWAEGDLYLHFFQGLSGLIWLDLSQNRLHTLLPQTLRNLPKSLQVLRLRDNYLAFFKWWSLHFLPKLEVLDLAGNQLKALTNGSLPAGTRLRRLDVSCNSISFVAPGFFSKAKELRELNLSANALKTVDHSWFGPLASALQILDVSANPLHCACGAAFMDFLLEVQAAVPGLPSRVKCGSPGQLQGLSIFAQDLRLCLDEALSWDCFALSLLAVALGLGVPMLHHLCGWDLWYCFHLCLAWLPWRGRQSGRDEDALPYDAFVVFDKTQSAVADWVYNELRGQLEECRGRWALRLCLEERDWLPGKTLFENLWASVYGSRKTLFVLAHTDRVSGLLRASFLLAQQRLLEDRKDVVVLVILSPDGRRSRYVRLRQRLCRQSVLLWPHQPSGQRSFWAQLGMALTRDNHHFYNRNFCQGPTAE
Where [4] appears, read: read-out: TLR8 IC50, HEK-Blue cells overexpressing human TLR8, R848 15.9 μM.
[5] abbreviates: read-out: TLR9 IC50, HEK-Blue cells overexpressing human TLR9, ODN2006 5 nM.

As to `Cc1cc(-c2[nH]c3ccc(C4CCN(C(=O)CN(C)CCC5(O)CCCC5)CC4)cc3c2C(C)C)cc(C)n1` [Example 408, 1-(4-(2-(2,6-dimethylpyridin-4-yl)-3-isopropyl-1H-indol-5-yl)piperidin-1-yl)-2-((2-(1-hydroxycyclopentyl)ethyl)(methyl)amino)ethan-1-one], the IC50 in test [1] (setting [4]) stood at 0.0725 µM; in test [2], 0.0076 µM; in test [3] (setting [5]), 0.846 µM.

Take `Cc1cc(-c2[nH]c3ccc(C4CCN(C(=O)CN5C[C@@H](F)C[C@H]5CO)CC4)cc3c2C(C)C)cc(C)n1` [Example 409, 1-(4-(2-(2,6-dimethylpyridin-4-yl)-3-isopropyl-1H-indol-5-yl)piperidin-1-yl)-2-((2S,4S)-4-fluoro-2-(hydroxymethyl)pyrrolidin-1-yl)ethan-1-one]: the IC50 in test [1] (setting [4]) is 0.0679 µM; in test [2], 0.0041 µM; in test [3] (setting [5]) it was 2.53 µM.

With `Cc1cc(-c2[nH]c3ccc(C4CCN(C(=O)CN5C[C@H](C)C[C@@H]5CO)CC4)cc3c2C(C)C)cc(C)n1` [Example 410, 1-(4-(2-(2,6-dimethylpyridin-4-yl)-3-isopropyl-1H-indol-5-yl)piperidin-1-yl)-2-((2R,4R)-2-(hydroxymethyl)-4-methylpyrrolidin-1-yl)ethan-1-one], the results for the IC50 in test [1] (setting [4]), in test [2] and in test [3] (setting [5]) were 0.027 µM, 0.0045 µM and 0.481 µM, respectively.

In the case of `Cc1cc(-c2[nH]c3ccc(C4CCN(C(=O)CN(C)CCCO)CC4)cc3c2C(C)C)cc(C)n1` [Example 411, 1-(4-(2-(2,6-dimethylpyridin-4-yl)-3-isopropyl-1H-indol-5-yl)piperidin-1-yl)-2-((3-hydroxypropyl)(methyl)amino)ethan-1-one], the IC50 was determined as 0.024 µM in test [1] (setting [4]), 0.0029 µM in test [2] and 1.23 µM in test [3] (setting [5]).

For the molecule `Cc1cc(-c2[nH]c3ccc(C4CCN(C(=O)CN5CCC[C@@H]5CO)CC4)cc3c2C(C)C)cc(C)n1` [Example 412, (R)-1-(4-(2-(2,6-dimethylpyridin-4-yl)-3-isopropyl-1H-indol-5-yl)piperidin-1-yl)-2-(2-(hydroxymethyl)pyrrolidin-1-yl)ethan-1-one], the IC50 stood at 0.034 µM in test [1] (setting [4]), 0.0047 µM in test [2] and 0.568 µM in test [3] (setting [5]).

Turning to `Cc1cc(-c2[nH]c3ccc(C4CCN(C(=O)CN(C)C5CCOC5)CC4)cc3c2C(C)C)cc(C)n1` (stereo not drawn) [Example 413, 1-(4-(2-(2,6-dimethylpyridin-4-yl)-3-isopropyl-1H-indol-5-yl)piperidin-1-yl)-2-(methyl(tetrahydrofuran-3-yl)amino)ethan-1-one], the results for the IC50 in test [1] (setting [4]), in test [2] and in test [3] (setting [5]) were 0.0918 µM, 0.0096 µM and 2.5 µM, respectively.

Take `CCCCN(CCO)CC(=O)N1CCC(c2ccc3[nH]c(-c4cc(C)nc(C)c4)c(C(C)C)c3c2)CC1` [Example 414, 2-(butyl(2-hydroxyethyl)amino)-1-(4-(2-(2,6-dimethylpyridin-4-yl)-3-isopropyl-1H-indol-5-yl)piperidin-1-yl)ethan-1-one]: the IC50 was found to be 0.0168 µM in test [1] (setting [4]), 0.0024 µM in test [2] and 0.924 µM in test [3] (setting [5]).

For the molecule `Cc1cc(-c2[nH]c3ccc(C4CCN(C(=O)CN(CCO)C(C)C)CC4)cc3c2C(C)C)cc(C)n1` [Example 415, 1-(4-(2-(2,6-dimethylpyridin-4-yl)-3-isopropyl-1H-indol-5-yl)piperidin-1-yl)-2-((2-hydroxyethyl)(isopropyl)amino)ethan-1-one], the figures for the IC50 in test [1] (setting [4]), in test [2] and in test [3] (setting [5]) were 0.0397 µM, 0.0079 µM and 1.86 µM, respectively.

Regarding `Cc1cc(-c2[nH]c3ccc(C4CCN(C(=O)CN(C)C5COC5)CC4)cc3c2C(C)C)cc(C)n1` [Example 416, 1-(4-(2-(2,6-dimethylpyridin-4-yl)-3-isopropyl-1H-indol-5-yl)piperidin-1-yl)-2-(methyl(oxetan-3-yl)amino)ethan-1-one], the half-maximal inhibitory concentration (IC50) in test [1] (setting [4]) amounted to 0.0497 µM; in test [2] it was 0.0045 µM; in test [3] (setting [5]) it was 4.76 µM.

As to `Cc1cc(-c2[nH]c3ccc(C4CCN(C(=O)CN(C)Cc5cc(C)on5)CC4)cc3c2C(C)C)cc(C)n1` [Example 417, 1-(4-(2-(2,6-dimethylpyridin-4-yl)-3-isopropyl-1H-indol-5-yl)piperidin-1-yl)-2-(methyl((5-methylisoxazol-3-yl)methyl)amino)ethan-1-one], the IC50 in test [1] (setting [4]) was found to be 0.0723 µM; in test [2] it was 0.0103 µM; in test [3] (setting [5]), 9.38 µM.

As for `COc1ncc(CN(C)CC(=O)N2CCC(c3ccc4[nH]c(-c5cc(C)nc(C)c5)c(C(C)C)c4c3)CC2)cn1` [Example 418, 1-(4-(2-(2,6-dimethylpyridin-4-yl)-3-isopropyl-1H-indol-5-yl)piperidin-1-yl)-2-(((2-methoxypyrimidin-5-yl)methyl)(methyl)amino)ethan-1-one], the IC50 in test [1] (setting [4]) stood at 0.0306 µM; in test [2], 0.003 µM; in test [3] (setting [5]) it was 2.05 µM.

For the molecule `Cc1cc(-c2[nH]c3ccc(C4CCN(C(=O)CN(C)Cc5ncn(C)n5)CC4)cc3c2C(C)C)cc(C)n1` [Example 419, 1-(4-(2-(2,6-dimethylpyridin-4-yl)-3-isopropyl-1H-indol-5-yl)piperidin-1-yl)-2-(methyl((1-methyl-1H-1,2,4-triazol-3-yl)methyl)amino)ethan-1-one], the IC50 came out at 0.117 µM in test [1] (setting [4]), 0.0107 µM in test [2] and 45.5 µM in test [3] (setting [5]).

`Cc1cc(-c2[nH]c3ccc(C4CCN(C(=O)CN(C)CCO)CC4)cc3c2C(C)C)cc(C)n1` [Example 420, 1-(4-(2-(2,6-dimethylpyridin-4-yl)-3-isopropyl-1H-indol-5-yl)piperidin-1-yl)-2-((2-hydroxyethyl)(methyl)amino)ethan-1-one]: the figures for the IC50 in test [1] (setting [4]), in test [2] and in test [3] (setting [5]) were 0.0099 µM, 0.0015 µM and 0.632 µM, respectively.

Turning to `Cc1cc(-c2[nH]c3ccc(C4CCN(C(=O)CN(C)CCF)CC4)cc3c2C(C)C)cc(C)n1` [Example 421, 1-(4-(2-(2,6-dimethylpyridin-4-yl)-3-isopropyl-1H-indol-5-yl)piperidin-1-yl)-2-((2-fluoroethyl)(methyl)amino)ethan-1-one], the IC50 in test [1] (setting [4]) is 0.0259 µM; in test [2] it was 0.0054 µM; in test [3] (setting [5]), 0.656 µM.

For the molecule `Cc1cc(-c2[nH]c3ccc(C4CCN(C(=O)CN(C)CC(F)F)CC4)cc3c2C(C)C)cc(C)n1` [Example 422, 2-((2,2-difluoroethyl)(methyl)amino)-1-(4-(2-(2,6-dimethylpyridin-4-yl)-3-isopropyl-1H-indol-5-yl)piperidin-1-yl) ethan-1-one], the results for the IC50 in test [1] (setting [4]), in test [2] and in test [3] (setting [5]) were 0.0734 µM, 0.0055 µM and 41.3 µM, respectively.

Consider `Cc1cc(-c2[nH]c3ccc(C4CCN(C(=O)CN(C)CC#N)CC4)cc3c2C(C)C)cc(C)n1` [Example 423, 2-((2-(4-(2-(2,6-dimethylpyridin-4-yl)-3-isopropyl-1H-indol-5-yl)piperidin-1-yl)-2-oxoethyl)(methyl)amino)acetonitrile], for which the results for the IC50 in test [1] (setting [4]), in test [2] and in test [3] (setting [5]) were 0.0208 µM, 0.0028 µM and 1.33 µM, respectively.

`COc1ccc(CN2CCC(c3ccc4[nH]c(-c5cc(C)nc(C)c5)c(C(C)C)c4c3)CC2)cn1` [Example 424, 2-(2,6-dimethylpyridin-4-yl)-3-isopropyl-5-(1-((6-methoxypyridin-3-yl)methyl)piperidin-4-yl)-1H-indole]: the IC50 in test [1] (setting [4]) was found to be 0.0072 µM; in test [2] it was 0.0083 µM; in test [3] (setting [5]), 0.255 µM.

Take `Cc1cc(-c2[nH]c3ccc(C4CCN(Cc5c[nH]cn5)CC4)cc3c2C(C)C)cc(C)n1` [Example 425, 5-(1-((1H-imidazol-4-yl)methyl)piperidin-4-yl)-2-(2,6-dimethylpyridin-4-yl)-3-isopropyl-1H-indole]: the results for the IC50 in test [1] (setting [4]), in test [2] and in test [3] (setting [5]) were 0.0025 µM, 0.0037 µM and 0.143 µM, respectively.

Regarding `Cc1cc(-c2[nH]c3ccc(C4CCN(Cc5c[nH]c(C)n5)CC4)cc3c2C(C)C)cc(C)n1` [Example 426, 2-(2,6-dimethylpyridin-4-yl)-3-isopropyl-5-(1-((2-methyl-1H-imidazol-4-yl)methyl)piperidin-4-yl)-1H-indole], the IC50 in test [1] (setting [4]) turned out to be 0.0026 µM; in test [2], 0.0061 µM; in test [3] (setting [5]), 0.09 µM.

In the case of `Cc1cc(-c2[nH]c3ccc(C4CCN(C5CCN(C(C)C)CC5)CC4)cc3c2C(C)C)cc(C)n1` [Example 427, 2-(2,6-dimethylpyridin-4-yl)-3-isopropyl-5-(1′-isopropyl-[1,4′-bipiperidin]-4-yl)-1H-indole], the IC50 in test [1] (setting [4]) was 0.0081 µM; in test [2], 0.0083 µM; in test [3] (setting [5]), 0.173 µM.

`CNCCN1CCC(c2ccc3[nH]c(-c4cc(C)nc(C)c4)c(C(C)C)c3c2)CC1` [Example 428, 2-(4-(2-(2,6-dimethylpyridin-4-yl)-3-isopropyl-1H-indol-5-yl)piperidin-1-yl)-N-methylethan-1-amine]: the IC50 came to 0.0019 µM in test [1] (TLR8 IC50, HEK-Blue cells overexpressing human TLR8, R848 15.9 μM); 0.0019 µM in test [2]; 0.12 µM in test [3] (TLR9 IC50, HEK-Blue cells overexpressing human TLR9, ODN2006 5 nM).

As to `Cc1cc(-c2[nH]c3ccc(C4CCN(C)CC4)cc3c2C(C)C)cc(C)n1` [Example 429, 2-(2,6-dimethylpyridin-4-yl)-3-isopropyl-5-(1-methylpiperidin-4-yl)-1H-indole], the figures for the IC50 in test [1] (setting [4]), in test [2] and in test [3] (setting [5]) were 0.0055 µM, 0.0022 µM and 0.484 µM, respectively.

As for `COc1ncc(CN2CCC(c3ccc4[nH]c(-c5cc(C)nc(C)c5)c(C(C)C)c4c3)CC2)cn1` [Example 430, 2-(2,6-dimethylpyridin-4-yl)-3-isopropyl-5-(1-((2-methoxypyrimidin-5-yl)methyl)piperidin-4-yl)-1H-indole], the IC50 in test [1] (setting [4]) came to 0.0059 µM; in test [2] it was 0.0101 µM; in test [3] (setting [5]), 0.369 µM.
